Reference: BindingDB's records for PubMed 34705450 (Astex Pharmaceuticals, 2021)

target: T1, Nuclear factor erythroid 2-related factor 2 (Homo sapiens, UniProt Q16236); test: Induction of Nrf2 in human BEAS-2B cells assessed as increase in NQO1 protein level incubated for 48 hrs by MTT assay
T1 sequence (Q16236 whole entry): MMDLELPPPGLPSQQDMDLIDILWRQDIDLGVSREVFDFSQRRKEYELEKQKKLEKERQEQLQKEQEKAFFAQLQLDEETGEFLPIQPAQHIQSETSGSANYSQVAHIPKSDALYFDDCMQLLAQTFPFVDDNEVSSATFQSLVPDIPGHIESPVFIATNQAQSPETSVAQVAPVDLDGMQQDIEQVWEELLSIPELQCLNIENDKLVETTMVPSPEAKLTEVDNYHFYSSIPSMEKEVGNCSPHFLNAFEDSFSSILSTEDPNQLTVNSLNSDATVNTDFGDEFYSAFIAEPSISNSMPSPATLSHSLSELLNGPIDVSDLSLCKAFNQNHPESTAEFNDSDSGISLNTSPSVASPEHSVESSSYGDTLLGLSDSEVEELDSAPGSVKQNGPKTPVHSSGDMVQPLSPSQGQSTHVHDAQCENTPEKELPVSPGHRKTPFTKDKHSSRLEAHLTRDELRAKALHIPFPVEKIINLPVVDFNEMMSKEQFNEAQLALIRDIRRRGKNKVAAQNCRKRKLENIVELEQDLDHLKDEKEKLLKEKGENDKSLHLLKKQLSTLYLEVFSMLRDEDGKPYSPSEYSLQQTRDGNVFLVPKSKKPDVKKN

| EC50 | SMILES |
| --- | --- |
| 1400 nM | CN(C)C(=O)c1cccc(-c2cccc(-n3ncc(C(=O)O)c3C3CC3)c2)c1 |
| 1300 nM | CN(C)C(=O)c1cccc(-c2cccc(-n3ncc(C(=O)O)c3C3CC3)c2)c1F |
| 2300 nM | O=C(O)c1cnn(-c2cccc(-c3cccc(C(=O)N4CCCCC4)c3F)c2)c1C1CC1 |
| 3500 nM | CCC[C@H]1CCCCN1C(=O)c1cccc(-c2cccc(-n3ncc(C(=O)O)c3C3CC3)c2)c1F |
| 1700 nM | CN(C)C(=O)[C@H]1CCC[C@@H](c2cccc(-n3ncc(C(=O)O)c3C3CC3)c2)C1 |
| 2700 nM | O=C(O)c1cnn(-c2cccc([C@@H]3CCC[C@H](C(=O)N4CCCCC4)C3)c2)c1C1CC1 |
| 4100 nM | CCCC1CCCCN1C(=O)C1CCCC(c2cccc(-n3ncc(C(=O)O)c3C3CC3)c2)C1 (stereo unspecified) |
| 3200 nM | CCCC1CCCCN1C(=O)c1cccc(-c2cccc(-n3ncc(C(=O)O)c3C3CC3c3cccnc3)c2)c1 (stereo unspecified) |
| 2200 nM | CN(CC1CC1)C(=O)c1cccc(-c2cccc(-n3ncc(C(=O)O)c3C3CC3)c2)c1F |
| 3800 nM | CCCC1CCCCN1C(=O)c1cccc(-c2cccc(-n3ncc(C(=O)O)c3C3CC3c3ccccn3)c2)c1 (stereo unspecified) |
| 3500 nM | O=C(O)c1cnn(-c2cccc(-c3cccc(C(=O)N(CC4CC4)CC4CC4)c3F)c2)c1C1CC1 |
| 3500 nM | CCC[C@@H]1CCCCN1C(=O)c1cccc(-c2cccc(-n3ncc(C(=O)O)c3C3CC3)c2)c1F |
| 2500 nM | CCCC1COCCN1C(=O)c1cccc(-c2cccc(-n3ncc(C(=O)O)c3C3CC3)c2)c1F (stereo unspecified) |
| 3700 nM | O=C(O)c1cnn(-c2cccc(-c3cccc(C(=O)N4CCCC5(CCCC5)C4)c3F)c2)c1C1CC1 |
| 4400 nM | CCCCC1CCCN1C(=O)C1CCCC(c2cccc(-n3ncc(C(=O)O)c3C3CC3)c2)C1 (stereo unspecified) |
| 4300 nM | CCCC[C@@H]1CCCN1C(=O)[C@H]1CCC[C@@H](c2cccc(-n3ncc(C(=O)O)c3C3CC3)c2)C1 |
| 2800 nM | CCCC1CCCCN1C(=O)c1cccc(-c2cccc(-n3ncc(C(=O)O)c3C3CC3c3cccnn3)c2)c1 (stereo unspecified) |
| 120 nM | CCCC1CCCCN1C(=O)c1cccc(-c2cccc(-n3ncc(C(=O)O)c3C3CC3c3cn(C)nn3)c2)c1 (stereo unspecified) |
| > 5000 nM | CCC[C@@H]1CCCCN1C(=O)c1cccc(-c2cccc(-n3ncc(C(=O)O)c3[C@@H]3C[C@H]3c3cn(C)nn3)c2)c1 |
| 43 nM | CCC[C@@H]1CCCCN1C(=O)c1cccc(-c2cccc(-n3ncc(C(=O)O)c3[C@H]3C[C@@H]3c3cn(C)nn3)c2)c1 |

target: Kelch-like ECH-associated protein 1 (Homo sapiens, UniProt Q14145)
Sequence (Q14145 whole entry): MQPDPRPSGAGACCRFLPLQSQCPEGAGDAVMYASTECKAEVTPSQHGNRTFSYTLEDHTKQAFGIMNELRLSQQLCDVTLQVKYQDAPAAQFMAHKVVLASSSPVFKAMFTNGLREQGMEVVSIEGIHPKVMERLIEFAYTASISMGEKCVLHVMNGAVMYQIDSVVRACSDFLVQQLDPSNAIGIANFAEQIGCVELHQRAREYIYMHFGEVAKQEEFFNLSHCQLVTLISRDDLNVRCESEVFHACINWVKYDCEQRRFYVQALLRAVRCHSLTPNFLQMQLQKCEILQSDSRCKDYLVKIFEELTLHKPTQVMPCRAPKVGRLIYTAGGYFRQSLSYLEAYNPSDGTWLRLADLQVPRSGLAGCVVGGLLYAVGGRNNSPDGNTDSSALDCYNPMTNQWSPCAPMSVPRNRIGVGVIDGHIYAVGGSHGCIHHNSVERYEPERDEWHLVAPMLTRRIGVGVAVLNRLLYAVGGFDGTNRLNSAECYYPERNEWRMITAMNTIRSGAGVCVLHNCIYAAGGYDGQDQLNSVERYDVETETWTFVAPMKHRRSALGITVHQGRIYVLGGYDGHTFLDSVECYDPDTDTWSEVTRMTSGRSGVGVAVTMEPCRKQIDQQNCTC

| IC50 | SMILES |
| --- | --- |
| 42 nM | CCCC1CCCCN1C(=O)c1cccc(-c2cccc(-n3ncc(C(=O)O)c3C3CC3c3ccccn3)c2)c1 (stereo unspecified) |
